Assay results taken from patent US12595267B2, “Preparation method for amide compound and application thereof in field of medicine” (Shanghai Synergy Pharmaceutical Sciences Co., Ltd., priority 2019, dated 2026).
Read-outs that look alike come from different tables or passages of the source.

Legend:
WSU-DLCL2 cells = assay: Calcein AM proliferation assay, WSU-DLCL2 cells; type: cell-based, human; conditions: Homo sapiens, read-out: WSU-DLCL2 proliferation IC50
Method: By observing under a microscope, it was confirmed that the cells are in good condition. The cells were transferred to a 15 mL centrifuge tube, which was centrifuged at 1000 rpm for 5 minutes.
Gradient dilutions of the compounds in DMSO were performed, and a compound plate with a final concentration of 500-fold was prepared. 1.2 μL of 500× compound was pipetted, transferred to 200 μL medium, and pipetted to mix well to obtain a 3× compound intermediate plate. 50 μL 3× compound is pipetted and added to the cell plate according to the set arrangement.
The cells of the above concentration were inoculated in 96-well plates, 100 μL/well (the number of cells in each well is 10,000). The cell plate was placed in a carbon dioxide incubator for 4 days. The cell plate was taken out. After mixed uniformly, a certain volume of cell suspension was drawn, and stained with Calcein AM. The number of cells in each well was counted with Acumen. According to the number of detected cells, 10,000 cells were re-inoculated in 96-well plates. As above, the compound was added. After placed in a carbon dioxide incubator for 3 days (day 7). The cell plate was taken out again. After mixed uniformly, a certain volume of cell suspension was drawn, stained with Calcein AM. The number of cells in each well was counted with Acumen. The cells were cultured for another 4 days (day 11), and the cell plate was taken out for the third time. After mixed uniformly, a certain volume of cell suspension was drawn, and stained with Calcein AM. The number of cells in each well was counted with Acumen. According to the number of detected cells, 10,000 cells were re-inoculated in 96-well plates. As above, the compound was added. […] After Calcein AM staining, the number of the cells was counted to obtain the final count result. The data of day 14 was processed to obtain the corresponding half-inhibitory concentration (IC50).
Using GraphPad Prism 5 software, a non-linear regression model was used to draw the S-type dose-survival rate curve and to calculate the IC50 value.

Pfeiffer cells = assay: Calcein AM proliferation assay, Pfeiffer cells; type: cell-based, human; conditions: Homo sapiens, Pfeiffer, read-out: Pfeiffer proliferation IC50
Karpas 422 cells = assay: Calcein AM proliferation assay, Karpas 422 cells; type: cell-based, human; conditions: Homo sapiens, read-out: Karpas422 proliferation IC50
wild-type EZH2 = wild-type EZH2 (Homo sapiens, UniProt Q15910); assay: Radiometric assay of activity on wild-type PRC2 EZH2
Method: 10 microliters (μL) of the compound of the test example and wild-type EZH2 were added to each well. After being incubated at room temperature for 15 minutes, peptides and [3H]-labeled methyl donor S-adenosylmethionine (SAM) were added. After reacting at room temperature for 1 hour (h), cold SAM was added to terminate the reaction. 25 μl reaction solution was transferred to the scintillation plate. After incubating for 1 hour (h) at room temperature, the plate was washed three times with deionized water and 0.1% Tween 20. The value was read with a PerkinElmer liquid scintillation/luminescence counter, and the half inhibitory concentration (IC50) of the compound was calculated with the Prism 5 software (GraphPad Prism 5).

Mutant EZH2 (Y641F) = target: T1, Mutant EZH2 (Y641F) (Homo sapiens, UniProt Q15910, Y641F); assay: AlphaLISA assay on mutant PRC2 complex, EZH2 Y641F; type: biochemical
T1 construct: purchased BPS 51004
Method: Detection Method: AlphaLISA
(§1) Finally, 15 μl detection solution mixture was added under low light, and incubated at room temperature for 60 minutes, and read the value.

[1] = Pharmacokinetics experiment in rats; type: in vivo; conditions: rat, plasma, male SD rats; for bioavailability: oral 20 mg/kg vs intravenous 4 mg/kg, read-out: Bioavailability (F %); for AUC: read-out: Area under the curve (AUC); for half-life: read-out: Half life (T1/2) (converted); for Cmax: read-out: Blood drug level (Cmax)
Method: Male SD rats weighing 200-300 g and 8 weeks old were used as experimental animals. […] The pharmacokinetic behavior of the compound of the present invention in rats was studied, and the pharmacokinetic characteristics thereof were evaluated.
A certain amount of the compound was weighed, dissolved in 0.10% tween for vortex and ultrasound, and then 0.5% sodium carboxymethyl cellulose (CMC-Na) solution was added to prepare a uniform solution.
The above-mentioned compounds were applied intravenously and orally to rats at a dose of 4 mg/kg and a dose of 20 mg/kg, respectively. At 0.083 h, 0.25 h, 0.5 h, 1.0 h, 2.0 h, 4.0 h, 6.0 h, 8.0 h, 12.0 h, and 24.0 h after application, 0.2 mL of blood was collected from the orbit, and placed in an anticoagulant tube, which was centrifuged at 6000 rpm for 10 minutes at 4° C. The plasma was separated and stored at −80° C.

Mutant EZH2 (Y641N) = target: T2, Mutant EZH2 (Y641N) (Homo sapiens, UniProt Q15910, Y641N); assay: AlphaLISA assay on mutant PRC2 complex, EZH2 Y641N; type: biochemical
T2 construct: purchased BPS 51004
Method: Detection Method: AlphaLISA
as §1

[2] = WSUDLCL2, day 14 data, Calcein AM staining
[3] = day 14 data, Calcein AM staining
[4] = KARPAS-422, day 14 data, Calcein AM staining

Sequence of wild-type EZH2 (Q15910 whole entry): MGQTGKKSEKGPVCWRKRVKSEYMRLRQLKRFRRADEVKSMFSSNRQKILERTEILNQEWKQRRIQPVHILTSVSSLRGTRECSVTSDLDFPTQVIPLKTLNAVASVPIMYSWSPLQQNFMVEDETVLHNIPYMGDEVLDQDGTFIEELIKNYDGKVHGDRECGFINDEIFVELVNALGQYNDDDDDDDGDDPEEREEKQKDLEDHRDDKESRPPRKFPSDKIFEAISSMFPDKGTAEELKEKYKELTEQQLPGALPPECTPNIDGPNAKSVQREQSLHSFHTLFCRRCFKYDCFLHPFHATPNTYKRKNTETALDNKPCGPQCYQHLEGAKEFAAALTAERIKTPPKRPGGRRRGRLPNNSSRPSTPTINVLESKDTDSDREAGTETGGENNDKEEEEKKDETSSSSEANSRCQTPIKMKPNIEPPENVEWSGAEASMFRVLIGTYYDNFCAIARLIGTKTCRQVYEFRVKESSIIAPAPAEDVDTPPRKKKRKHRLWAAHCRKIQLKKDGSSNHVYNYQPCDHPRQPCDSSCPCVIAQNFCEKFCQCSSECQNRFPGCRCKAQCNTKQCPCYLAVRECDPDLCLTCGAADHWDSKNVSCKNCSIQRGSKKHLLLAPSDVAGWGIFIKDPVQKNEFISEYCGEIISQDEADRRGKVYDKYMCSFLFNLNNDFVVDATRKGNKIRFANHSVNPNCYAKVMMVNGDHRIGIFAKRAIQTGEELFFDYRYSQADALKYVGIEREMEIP
Sequence of wild-type EZH2 (O75530 whole entry partner): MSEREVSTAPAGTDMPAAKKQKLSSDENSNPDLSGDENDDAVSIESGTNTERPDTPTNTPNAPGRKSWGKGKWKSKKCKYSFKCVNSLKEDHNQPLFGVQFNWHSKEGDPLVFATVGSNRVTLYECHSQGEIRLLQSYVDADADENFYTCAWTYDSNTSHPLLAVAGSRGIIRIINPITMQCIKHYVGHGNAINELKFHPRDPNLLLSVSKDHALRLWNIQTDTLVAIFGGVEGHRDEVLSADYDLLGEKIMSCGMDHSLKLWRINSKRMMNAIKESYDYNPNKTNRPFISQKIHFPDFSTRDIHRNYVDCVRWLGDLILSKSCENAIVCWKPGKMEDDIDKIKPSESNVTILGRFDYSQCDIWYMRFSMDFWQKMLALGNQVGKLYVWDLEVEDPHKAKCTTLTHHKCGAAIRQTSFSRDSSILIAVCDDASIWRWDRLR
Sequence of wild-type EZH2 (Q15022 whole entry partner): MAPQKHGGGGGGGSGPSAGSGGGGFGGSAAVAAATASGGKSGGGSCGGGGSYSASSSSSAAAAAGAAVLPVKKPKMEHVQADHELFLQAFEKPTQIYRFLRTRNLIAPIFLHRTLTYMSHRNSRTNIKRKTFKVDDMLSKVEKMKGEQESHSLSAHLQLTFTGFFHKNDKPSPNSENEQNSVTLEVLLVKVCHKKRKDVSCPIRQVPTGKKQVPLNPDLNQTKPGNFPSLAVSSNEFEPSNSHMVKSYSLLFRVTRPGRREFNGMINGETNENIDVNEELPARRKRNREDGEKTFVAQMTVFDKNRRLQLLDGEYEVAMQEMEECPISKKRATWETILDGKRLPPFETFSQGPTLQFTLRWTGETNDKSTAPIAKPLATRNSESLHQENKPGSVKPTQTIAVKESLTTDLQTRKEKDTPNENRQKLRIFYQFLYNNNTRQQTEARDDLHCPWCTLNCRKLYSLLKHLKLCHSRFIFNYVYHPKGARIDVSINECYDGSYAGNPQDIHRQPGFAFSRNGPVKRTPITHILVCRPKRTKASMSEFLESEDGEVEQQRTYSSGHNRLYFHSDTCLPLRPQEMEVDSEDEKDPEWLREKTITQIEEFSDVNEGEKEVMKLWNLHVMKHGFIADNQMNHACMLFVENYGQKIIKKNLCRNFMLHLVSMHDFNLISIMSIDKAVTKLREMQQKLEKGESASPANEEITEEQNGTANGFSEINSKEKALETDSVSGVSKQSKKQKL
Sequence of wild-type EZH2 (Q09028 whole entry partner): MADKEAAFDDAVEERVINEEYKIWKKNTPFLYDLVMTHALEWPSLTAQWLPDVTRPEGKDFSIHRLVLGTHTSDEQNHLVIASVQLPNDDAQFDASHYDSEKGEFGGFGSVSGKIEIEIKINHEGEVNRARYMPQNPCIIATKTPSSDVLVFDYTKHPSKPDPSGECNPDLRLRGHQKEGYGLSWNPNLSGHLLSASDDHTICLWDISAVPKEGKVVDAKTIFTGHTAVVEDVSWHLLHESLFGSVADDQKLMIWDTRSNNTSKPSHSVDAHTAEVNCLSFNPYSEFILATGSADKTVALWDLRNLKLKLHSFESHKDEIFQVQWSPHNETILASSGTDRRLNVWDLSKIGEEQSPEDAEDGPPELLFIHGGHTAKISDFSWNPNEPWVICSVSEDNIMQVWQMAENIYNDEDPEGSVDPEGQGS
T1 sequence (Q15910 whole entry Y641F): as the sequence (Q15910 whole entry) above, with Y641F counted along it
T1 sequence (O75530 whole entry partner): as the sequence (O75530 whole entry partner) above
T1 sequence (Q15022 whole entry partner): as the sequence (Q15022 whole entry partner) above
T1 sequence (Q09028 whole entry partner): as the sequence (Q09028 whole entry partner) above
T1 sequence (Q6ZN18 whole entry partner): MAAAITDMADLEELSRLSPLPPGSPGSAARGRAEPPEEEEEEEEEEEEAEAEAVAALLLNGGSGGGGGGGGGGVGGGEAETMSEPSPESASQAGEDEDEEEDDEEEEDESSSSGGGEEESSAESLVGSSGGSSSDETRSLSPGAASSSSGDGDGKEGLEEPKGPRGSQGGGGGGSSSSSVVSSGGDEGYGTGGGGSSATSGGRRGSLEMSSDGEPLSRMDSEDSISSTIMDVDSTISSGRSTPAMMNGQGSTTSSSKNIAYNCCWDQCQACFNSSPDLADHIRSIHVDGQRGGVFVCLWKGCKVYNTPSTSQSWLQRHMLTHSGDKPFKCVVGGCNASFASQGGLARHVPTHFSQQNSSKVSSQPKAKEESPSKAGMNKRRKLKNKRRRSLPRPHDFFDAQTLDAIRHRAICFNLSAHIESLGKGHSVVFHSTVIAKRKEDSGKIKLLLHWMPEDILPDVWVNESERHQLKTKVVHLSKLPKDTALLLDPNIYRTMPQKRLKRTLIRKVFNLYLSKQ
T2 sequence (Q15910 whole entry Y641N): as the sequence (Q15910 whole entry) above, with Y641N counted along it
T2 sequence (O75530 whole entry partner): as the sequence (O75530 whole entry partner) above
T2 sequence (Q15022 whole entry partner): as the sequence (Q15022 whole entry partner) above
T2 sequence (Q09028 whole entry partner): as the sequence (Q09028 whole entry partner) above
T2 sequence (Q6ZN18 whole entry partner): as the sequence (Q6ZN18 whole entry partner) above

Row | SMILES | IC50 (WSU-DLCL2 cells; [2]) | IC50 (Pfeiffer cells; [3]) | IC50 (Karpas 422 cells; [4]) | IC50 (wild-type EZH2) | other results
1 | CCN(c1cc(N2Cc3ccc(N(C)C)cc3C2)cc(C(=O)NCc2c(C)cc(C)[nH]c2=O)c1C)C1CCOCC1 [Compound 17, N-((4,6-dimethyl-2-oxo-1,2-dihydropyridin-3-yl)methyl)-5-(5-(dimethylamino)isoindolin-2-yl)-3-(ethyl(tetrahydro-2H-pyran-4-yl)amino)-2-methylbenzamide] | 3.71 nM | 1.27 nM | 2.6 nM |  | 
2 | CCN(c1cc(-c2ccc(C3(CO)CCOCC3)cc2)cc(C(=O)NCc2c(C)cc(C)[nH]c2=O)c1C)C1CCOCC1 [Compound 3, N-((4,6-dimethyl-2-carbonyl-1,2-dihydropyridin-3-yl)methyl)-5-(ethyl(tetrahydro-2H-pyran-4-yl)amino)-4′-(4-(hydroxymethyl)tetrahydro-2H-pyran-4-yl)-4-methyl-[1,1′-biphenyl]-3-carboxamide] | 2.68 nM | 1.67 nM | 2.5 nM |  | 
3 | CCN(c1cc(-c2cc(F)c3c(c2)CCC3N2CCOCC2)cc(C(=O)NCc2c(C)cc(C)[nH]c2=O)c1C)C1CCOCC1 (stereo not shown) [Compound 26] | 9.42 nM | 5.86 nM | 6.47 nM |  | 
4 | CCN(c1cc(-c2ccc(C3(COC)CCOCC3)cc2)cc(C(=O)NCc2c(C)cc(C)[nH]c2=O)c1C)C1CCOCC1 [Compound 5, N-((4,6-dimethyl-2-carbonyl-1,2-dihydropyridin-3-yl)methyl)-5-(ethyl(tetrahydro-2H-pyran-4-yl)amino)-4′-(4-(methoxymethyl)tetrahydro-2H-pyran-4-yl)-4-methyl-[1,1′-biphenyl]-3-carboxamide] | 5.85 nM | 2.84 nM | 3.23 nM |  | 
5 | CCN(c1ccc2c(c1)CN(c1cc(C(=O)NCc3c(C)cc(C)[nH]c3=O)c(C)c(N(CC)C3CCOCC3)c1)C2)C1CCOCC1 [Compound 22, N-((4,6-dimethyl-2-oxo-1,2-dihydropyridin-3-yl)methyl)-3-(ethyl (tetrahydro-2H-pyran-4-yl)amino)-5-(5-(ethyl(tetrahydro-2H-pyran-4-yl)amino)isoindolin-2-yl)-2-methylbenzamide] | 6.38 nM | 1.87 nM | 3.67 nM | 0.71 nM | 
6 | CCN(c1cc(-c2ccc(C3(C#N)CCOCC3)cc2)cc(C(=O)NCc2c(C)cc(C)[nH]c2=O)c1C)C1CCOCC1 [Compound 1, 4′-(4-cyanotetrahydro-2H-pyran-4-yl)-N-((4,6-dimethyl-2-carbonyl-1,2-dihydropyridin-3-yl)methyl)-5-(ethyl(tetrahydro-2H-pyran-4-yl)amino)-4-methyl-[1,1′-biphenyl]-3-formamide] |  |  |  |  | IC50 (WSU-DLCL2 cells; WSUDLCL2, […]): 2.87 nM; IC50 (Pfeiffer cells; […]): 1.34 nM; IC50 (Karpas 422 cells; KARPAS-422, […]): 2.15 nM
7 | CCN(c1cc(-c2ccc3c(c2)C(C)(C)CC3N2CCOCC2)cc(C(=O)NCc2c(C)cc(C)[nH]c2=O)c1C)C1CCOCC1 (stereo not shown) [Compound 27] | 1.71 nM |  |  |  | 
8 | CCN(c1cc(-c2ccc3c(c2)CCC3N2CCOCC2)c(F)c(C(=O)NCc2c(C)cc(C)[nH]c2=O)c1C)C1CCOCC1 (stereo not shown) [Compound 11, N-((4,6-dimethyl-2-oxo-1,2-dihydropyridin-3-yl)methyl)-3-(ethyl (tetrahydro-2H-pyran-4-yl)amino)-6-fluoro-2-methyl-5-(1-morpholino-2,3-dihydro-1H-inden-5-yl)benzamide] | 2.92 nM | 1.08 nM | 1.87 nM | 0.6 nM | IC50 (Mutant EZH2 (Y641F)): 0.54 nM; bioavailability [1]: 26.6%; AUC ([1]; intravenous dosing 4 mg/kg): 954 ng·h/mL; half-life ([1]; intravenous dosing 4 mg/kg): 1.34 h; AUC ([1]; oral dosing 20 mg/kg): 1270 ng·h/mL; Cmax ([1]; oral dosing 20 mg/kg): 489 ng/mL
9 | CCN(c1cc(N2Cc3ccc(CN4CCOCC4)cc3C2)cc(C(=O)NCc2c(C)cc(C)[nH]c2=O)c1C)C1CCOCC1 [Compound 20, N-((4,6-dimethyl-2-oxo-1,2-dihydropyridin-3-yl)methyl)-3-(ethyl (tetrahydro-2H-pyran-4-yl)amino)-2-methyl-5-((5-morpholinomethyl)isoindolin-2-yl)benzamide] | 7.84 nM | 2.85 nM | 3.62 nM |  | 
10 | C=CC(=O)Nc1ccc2c(c1)CN(c1cc(C(=O)NCc3c(C)cc(C)[nH]c3=O)c(C)c(N(CC)C3CCOCC3)c1)C2 [Compound 19, 5-(5-acrylamidoisoindolin-2-yl)-N-((4,6-dimethyl-2-oxo-1,2-dihydropyridin-3-yl)methyl)-3-(ethyl(tetrahydro-2H-pyran-4-yl)amino)-2-methylbenzamide] | 7.75 nM | 2.34 nM | 3.21 nM | 0.61 nM | IC50 (Mutant EZH2 (Y641N)): 0.08 nM
11 | CCN(c1cc(-c2ccc3c(c2)CCC3N2CCOCC2)cc(C(=O)NCc2c(C)cc(C)[nH]c2=O)c1C)C1CCOC(C)C1 (stereo not shown) [Compound 14, N-((4,6-dimethyl-2-oxo-1,2-dihydropyridin-3-yl)methyl)-3-((2-methyltetrahydro-2H-pyran-4-yl)(ethyl)amino)-2-methyl-5-(1-morpholino-2,3-dihydro-1H-inden-5-yl)benzamide] | 4.15 nM | 2.89 nM | 3.76 nM |  | 
12 | CCN(c1cc(-c2ccc(C3(C#N)CCOCC3)cc2)c(Cl)c(C(=O)NCc2c(C)cc(C)[nH]c2=O)c1C)C1CCOCC1 [Compound 9, 2-chloro-4′-(4-cyanotetrahydro-2H-pyran-4-yl)-N-((4,6-dimethyl-2-oxo-1,2-dihydropyridin-3-yl)methyl)-5-(ethyl(tetrahydro-2H-pyran-4-yl)amino)-4-methyl-[1,1′-biphenyl]-3-formamide] | 4.68 nM | 3.47 nM | 4.15 nM | 0.9 nM | IC50 (Mutant EZH2 (Y641F)): 0.48 nM
13 | CCN(c1cc(-c2ccc3c(c2)CCC3N2CCOCC2)cc(C(=O)NCc2c(C)cc(C)[nH]c2=O)c1C)C1CC(C)OC(C)C1 (stereo not shown) [Compound 13, N-((4,6-dimethyl-2-oxo-1,2-dihydropyridin-3-yl)methyl)-3-((2,6-dimethyltetrahydro-2H-pyran-4-yl)(ethyl)amino)-2-methyl-5-(1-morpholino-2,3-di hydro-1H-inden-5-yl)benzamide] |  |  |  | 0.95 nM | IC50 (Mutant EZH2 (Y641F)): 0.81 nM; IC50 (WSU-DLCL2 cells; WSUDLCL2, […]): 1.28 nM; IC50 (Pfeiffer cells; […]): 0.87 nM; IC50 (Karpas 422 cells; KARPAS-422, […]): 0.95 nM; bioavailability [1]: 34.5%; AUC ([1]; intravenous dosing 4 mg/kg): 977 ng·h/mL; half-life ([1]; intravenous dosing 4 mg/kg): 1.34 h; AUC ([1]; oral dosing 20 mg/kg): 1690 ng·h/mL; Cmax ([1]; oral dosing 20 mg/kg): 403 ng/mL
14 | CCN(c1cc(-c2ccc(C3(C(=O)O)CCOCC3)cc2)cc(C(=O)NCc2c(C)cc(C)[nH]c2=O)c1C)C1CCOCC1 [Compound 2, 4-(3′-(((4,6-dimethyl-2-carbonyl-1,2-dihydropyridin-3-yl)methyl)carbamoyl)-5′-(ethyl(tetrahydro-2H-pyran-4-yl)amino)-4′-methyl-[1,1′-biphenyl]-4-yl)tetrahydro-2H-pyran-4-carboxylic Acid] | 1.58 nM |  | 1.08 nM |  | 
15 | CCN(c1cc(-c2ccc3c(c2)CCC3N2CCOCC2)cc(C(=O)NCc2c(OC)cc(C)[nH]c2=O)c1C)C1CCOCC1 (stereo not shown) [Compound 6, 3-(ethyl(tetrahydro-2H-pyran-4-yl)amino)-N-((4-methoxy-6-methyl-2-oxo-1,2-dihydropyridin-3-yl)methyl)-2-methyl-5-(1-morpholino-2,3-dihydro-1H-inden-5-yl)benzamide] | 5.13 nM | 3.2 nM | 4.15 nM | 0.52 nM | bioavailability [1]: 33.3%; AUC ([1]; intravenous dosing 4 mg/kg): 966 ng·h/mL; half-life ([1]; intravenous dosing 4 mg/kg): 1.12 h; AUC ([1]; oral dosing 20 mg/kg): 1610 ng·h/mL; Cmax ([1]; oral dosing 20 mg/kg): 456 ng/mL
